Like-named read-outs stand apart in the source and are kept apart here.
Key:
[1] = test system: plasma LPA 18:1 and LPA 18:2; experiment: Human plasma ex vivo assay (LPA 18:1 / 18:2 by LC-MS/MS); assay type: biochemical; conditions: 37° C., 2 hours
Procedure, shortened: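 Human plasma incubated 2 h at 37° C with compound (8 points, 1:3 dilution, top 10 μM, 0.1% DMSO), then quenched with 0.1% FA containing LPA 17:0 internal standard.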

[2] = Pharmacokinetic test in mice; assay type: in vivo, ICR mice; conditions: for AUC / C0 / half-life / clearance / Cmax / Tmax / bioavailability: male, ICR, mouse, plasma; for clearance: read-out: CL (mL/min/kg, IV)
Experimental: Dosage preparation: The dosing solution was prepared on the day of dosing. 2 mg of compound was weighed and dissolved in 5% DMSO+10% solutol+85% saline to prepare a solution for intravenous administration at a concentration of 0.2 mg/mL. 2 mg of compound was weighed and dissolved in 25% PEG 200+75% (0.5% MC) to obtain a solution for oral administration at a concentration of 1 mg/mL.
Six healthy male naïve ICR mice, weighing 25 to 30 g, were divided into two groups (intravenous and oral groups) with three in each group, and administered in a single dose. After 3 days of acclimatization, the mice were fasted overnight (10 to 12 hours) the night before the experiment, but had free access to water during the experiment, and the diet was resumed 4 hours after administration. After intravenous and oral administration, the timer was started. Blood was collected via the orbital venous plexus at the scheduled time points (IV&PO: 0.083, 0.25, 0.5, 1, 2, 4, 6, 8, and 24 hours). 40 μL of whole blood was collected at each point and added to a 1.5 mL EP tube containing sodium heparin. The collected whole blood was vibrated twice on a vortex mixer, mixed well, placed on wet ice, and centrifuged at 8000 rpm for 5 minutes at 4° C. within 1 hour. The supernatant plasma was stored in a −80° C. freezer until processing for analysis.

ATX = ATX (Homo sapiens (Human), UniProt Q13822); experiment: ATX enzyme inhibition assay (Amplex UltraRed/choline oxidase/HRP, 16:0 Lyso PC substrate); assay type: biochemical
Procedure, shortened: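 ATX (2× stock […]) preincubated with compound for 10 min at room temperature in assay buffer at pH 8.5 or 7.5. Reaction started with 16:0 Lyso PC, choline oxidase, HRP and Amplex UltraRed (2.5× working stock); fluorescence read kinetically (ex 550/em 590 nm) for 60 min.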

[3] = LPA 18:1, read-out: Human plasma ex vivo assay IC50 (18:1 LPA)
[4] = LPA 18:2, read-out: Human plasma ex vivo assay IC50 (18:2 LPA)
[5] = 5 mg/kg, PO - 5 mpk vs IV - 1 mpk
[6] = assay buffer pH 8.5, read-out: IC50 (nM) pH 8.5
[7] = assay buffer pH 7.5, read-out: IC50 (nM) pH 7.5

IC50 [1, 3] [µM]	IC50 [1, 4] [µM]	AUC ([2]; 1 mg/kg, IV - 1 mpk) [ng·h/mL]	C0 ([2]; 1 mg/kg, IV - 1 mpk) [ng/mL]	half-life ([2]; 1 mg/kg, IV - 1 mpk) [h]	clearance ([2]; 1 mg/kg, IV - 1 mpk) [mL/min/kg]	AUC ([2]; 5 mg/kg, PO - 5 mpk) [ng·h/mL]	Cmax ([2]; 5 mg/kg, PO - 5 mpk) [ng/mL]	Tmax ([2]; 5 mg/kg, PO - 5 mpk) [h]	half-life ([2]; 5 mg/kg, PO - 5 mpk) [h]	bioavailability [2, 5] [%]	IC50 (ATX; [6]) [nM]	Compound	also measured
0.545	0.574	14100	2110	3.63	1.21	125000	10200	3	2.82	176		CN(c1nc(-c2ccc(F)cc2)c(C#N)s1)c1c2c(nc3c(F)cc(N4CC5(CN(C(=O)C(C)(C)O)C5)C4)cc13)CC2 [Example C28]	
0.202	0.185					8890	2040	1.58	1.51			Cc1cc(N2CC3(CN(C(=O)C(C)(C)O)C3)C2)nc2c(N(C)c3nc(-c4ccc(F)cc4)c(C#N)s3)c3c(nc12)C(O)CC3 (centres unmarked) [Example E32]	
		3700	1940	1.82	4.59	11000	3330	0.58	2.79	59.7	15.2	CN(c1nc(-c2ccc(F)cc2)c(C#N)s1)c1c2c(nc3c(F)cc(N4CC5(CN(C(=O)[C@H]6CCOC6)C5)C4)cc13)COC2 [Example C18]	
0.251	0.22	12600	2600	2.73	1.39	36500	3640	0.67	1.89	57.7		Cc1cc(N2CC3(CN(C(=O)C(C)(C)O)C3)C2)nc2c(N(C)c3nc(-c4ccc(F)cc4)c(C#N)s3)c3c(nc12)CC3 [Example C29]	
						21400	2660	0.5	2.56			CN(c1nc(-c2ccc(F)cc2)c(C#N)s1)c1c2c(nc3c(F)cc(N4CC5(CN(C(=O)C(C)(C)O)C5)C4)cc13)CCC2 [Example C32]	
						32300	3480	0.42	3.77			Cc1cc(N2CC3(CN(C(=O)C(C)(C)O)C3)C2)cc2c(N(C)c3nc(-c4ccc(F)cc4)c(C#N)s3)c3c(nc12)COC3 [Example C31]	
0.169	0.191	2080	1800	1.23	8	7940	2920	0.25	2.4	76.2	27.5	CN(c1nc(-c2ccc(F)cc2)c(C#N)s1)c1c2c(nc3c(F)cc(N4CC5(CN(C(=O)[C@@H]6CCOC6)C5)C4)cc13)CC2 [Example C8]	IC50 (ATX; [7]): 67.3 nM
0.521	0.438										36.3	CN(c1nc(-c2ccc(F)cc2)c(C#N)s1)c1c2c(nc3c(F)cc(N4CC5(CN(C(=O)[C@H]6CCOC6)C5)C4)cc13)CCC2 [Example C1]	IC50 (ATX; [7]): 63.5 nM; AUCi ([2]; IV - 1 mpk): 5701 ng·h/mL; C0 (IV) ([2]; IV - 1 mpk): 3141 ng/mL; CL (mL/min/kg, IV) ([2]; IV - 1 mpk): 2.92 mL/min/kg; T1/2 ([2]; IV - 1 mpk): 2.15 h; AUCi ([2]; PO - 5 mpk): 7392 ng·h/mL; Cmax (PO) ([2]; PO - 5 mpk): 1903 ng/mL; T1/2 ([2]; PO - 5 mpk): 2.08 h; Tmax (hr, PO) ([2]; PO - 5 mpk): 1.0 h; Bioavailability (%) ([2]; PO - 5 mpk vs IV - 1 mpk): 26%
						27600	2010	6.67	3.98			Cc1cc(N2CC3(CN(C(=O)C(C)(C)O)C3)C2)cc2c(N(C)c3nc(-c4ccc(F)cc4)c(C#N)s3)c3c(nc12)CCO3 [Example C27]	
0.588	0.435					124000	8390	4.08	5.13			Cc1cc(N2CC3(CN(C(=O)C(C)(C)O)C3)C2)cc2c(N(C)c3nc(-c4ccc(F)cc4)c(C#N)s3)c3c(nc12)CC3 [Example C26]	
0.379	0.457					23900	2830	0.58	2.66			Cc1cc(N2CC3(CN(C(=O)C(C)(C)O)C3)C2)nc2c(N(C)c3nc(-c4ccc(F)cc4)c(C#N)s3)c3c(nc12)C(C)(O)CC3 (centres unmarked) [Example E25]	
0.294	0.305										22.7	CN(c1nc(-c2ccc(F)cc2)c(C#N)s1)c1c2c(nc3c(F)cc(N4CC5(CN(C(=O)[C@H]6CCOC6)C5)C4)cc13)[C@H](O)CC2 (single isomer, unassigned) [Example E5-a]	AUCi ([2]; IV - 1 mpk): 1986 ng·h/mL; C0 (IV) ([2]; IV - 1 mpk): 1882 ng/mL; CL (mL/min/kg, IV) ([2]; IV - 1 mpk): 8.54 mL/min/kg; T1/2 ([2]; IV - 1 mpk): 0.95 h; AUCi ([2]; PO - 10 mpk): 44380 ng·h/mL; Cmax (PO) ([2]; PO - 10 mpk): 7763 ng/mL; T1/2 ([2]; PO - 10 mpk): 2.34 h; Tmax (hr, PO) ([2]; PO - 10 mpk): 0.5 h; Bioavailability (%) ([2]; PO - 10 mpk vs IV - 1 mpk): 223%
0.457	0.407	6770	2920	2.51	2.51	14700	3140	1.58	2.05	43.5		CN(c1nc(-c2ccc(F)cc2)c(C#N)s1)c1c2c(nc3c(F)cc(N4CC5(CN(C(=O)C(C)(C)O)C5)C4)cc13)[C@](C)(O)CC2 (single isomer, unassigned) [Example E35-b]	
0.381	0.383	5540	3550	1.87	3.07	17000	3010	0.33	2.22	61.3	20.1	CN(c1nc(-c2ccc(F)cc2)c(C#N)s1)c1c2c(nc3c(F)cc(N4CC5(CN(C(=O)C(C)(C)O)C5)C4)cc13)[C@@H](O)CC2 (single isomer, unassigned) [Example E16-a]	
0.318	0.319					16900	4280	0.5	2.13		25.9	CN(c1nc(-c2ccc(F)cc2)c(C#N)s1)c1c2c(nc3ncc(N4CC5(CN(C(=O)[C@@H]6CCOC6)C5)C4)cc13)CC2 [Example C17]	
0.516	0.592					31300	4430	1.75	2.16			Cc1cc(N2CC3(CN(C(=O)C(C)(C)O)C3)C2)cc2c(N(C)c3nc(-c4ccc(F)cc4)c(C#N)s3)c3c(nc12)C(O)CC3 (centres unmarked) [Example E26]	
0.31	0.379										83.1	CN(c1nc(-c2ccc(F)cc2)c(C#N)s1)c1c2c(nc3c(F)cc(N4CCC5(CCN(C(=O)[C@@H]6CCOC6)C5)C4)cc13)CCC2 (some centres unmarked) [Example C14]	IC50 (ATX; [7]): 334 nM
